Reference: paper PMC12748989 (Nature Communications, 2025)

How the values were obtained:
PBMC = details: 12.5 µM

Structure (SMILES)	Average (percentage cell inhibition), Dmastoparan MDA-MB231 12.5uM (MDA-MB-231 cells) [%]	Average (percentage cell inhibition), Mastoparan PBMC (PBMC) [%]
CC[C@H](C)[C@H](N)C(=O)N[C@@H](CC(N)=O)C(=O)N[C@@H](CC(C)C)C(=O)N[C@@H](CCCCN)C(=O)N[C@@H](C)C(=O)N[C@@H](CC(C)C)C(=O)N[C@@H](C)C(=O)N[C@@H](C)C(=O)N[C@@H](CC(C)C)C(=O)N[C@@H](C)C(=O)N[C@@H](CCCCN)C(=O)N[C@@H](CCCCN)C(=O)N[C@H](C(=O)N[C@H](C(N)=O)[C@@H](C)CC)[C@@H](C)CC [I14]	33.7751	14.5337
CC[C@H](C)[C@H](N)C(=O)N[C@@H](CC(N)=O)C(=O)N[C@@H](CC(C)C)C(=O)N[C@@H](CCCCN)C(=O)N[C@@H](C)C(=O)N1CCC[C@H]1C(=O)N[C@@H](C)C(=O)N[C@@H](C)C(=O)N[C@@H](CC(C)C)C(=O)N[C@@H](C)C(=O)N[C@@H](CCCCN)C(=O)N[C@@H](CCCCN)C(=O)N[C@H](C(=O)N[C@@H](CC(C)C)C(N)=O)[C@@H](C)CC [P6]	-16.4349	-8.854
CC[C@H](C)[C@H](N)C(=O)N[C@@H](CC(N)=O)C(=O)N[C@@H](CC(C)C)C(=O)N[C@@H](CCCCN)C(=O)N[C@H](C(=O)N[C@@H](CC(C)C)C(=O)N[C@@H](C)C(=O)N[C@@H](C)C(=O)N[C@@H](CC(C)C)C(=O)N[C@@H](C)C(=O)N[C@@H](CCCCN)C(=O)N[C@@H](CCCCN)C(=O)N[C@H](C(=O)N[C@@H](CC(C)C)C(N)=O)[C@@H](C)CC)C(C)C [V5]	36.2551	6.235
CC[C@H](C)[C@H](N)C(=O)N[C@@H](CC(N)=O)C(=O)N[C@@H](CC(C)C)C(=O)N[C@@H](CCCCN)C(=O)N[C@@H](CC(C)C)C(=O)N[C@@H](CC(C)C)C(=O)N[C@@H](C)C(=O)N[C@@H](C)C(=O)N[C@@H](CC(C)C)C(=O)N[C@@H](C)C(=O)N[C@@H](CCCCN)C(=O)N[C@@H](CCCCN)C(=O)N[C@H](C(=O)N[C@@H](CC(C)C)C(N)=O)[C@@H](C)CC [L5]	46.6396	25.5295
CC[C@H](C)[C@H](N)C(=O)N[C@@H](CC(N)=O)C(=O)N[C@@H](CC(C)C)C(=O)N[C@@H](CC(N)=O)C(=O)N[C@@H](C)C(=O)N[C@@H](CC(C)C)C(=O)N[C@@H](C)C(=O)N[C@@H](C)C(=O)N[C@@H](CC(C)C)C(=O)N[C@@H](C)C(=O)N[C@@H](CCCCN)C(=O)N[C@@H](CCCCN)C(=O)N[C@H](C(=O)N[C@@H](CC(C)C)C(N)=O)[C@@H](C)CC [N4]	50.001	12.5207
CC[C@H](C)[C@H](N)C(=O)N[C@@H](CC(N)=O)C(=O)N[C@@H](CC(C)C)C(=O)N[C@@H](CCCCN)C(=O)N[C@@H](C)C(=O)N[C@@H](CC(C)C)C(=O)N[C@@H](CCC(=O)O)C(=O)N[C@@H](C)C(=O)N[C@@H](CC(C)C)C(=O)N[C@@H](C)C(=O)N[C@@H](CCCCN)C(=O)N[C@@H](CCCCN)C(=O)N[C@H](C(=O)N[C@@H](CC(C)C)C(N)=O)[C@@H](C)CC [E7]	27.5958	6.221
CC[C@H](C)[C@H](N)C(=O)N[C@@H](CC(N)=O)C(=O)N[C@@H](CC(C)C)C(=O)N[C@@H](CCCCN)C(=O)N[C@@H](C)C(=O)N[C@@H](CC(C)C)C(=O)N[C@@H](C)C(=O)N[C@@H](C)C(=O)N[C@@H](CC(C)C)C(=O)N[C@@H](C)C(=O)N[C@@H](CCCCN)C(=O)N[C@@H](CCCCN)C(=O)N[C@@H](Cc1c[nH]cn1)C(=O)N[C@@H](CC(C)C)C(N)=O [H13]	24.5783	-0.416
CC[C@H](C)[C@H](N)C(=O)N[C@@H](CCC(=O)O)C(=O)N[C@@H](CC(C)C)C(=O)N[C@@H](CCCCN)C(=O)N[C@@H](C)C(=O)N[C@@H](CC(C)C)C(=O)N[C@@H](C)C(=O)N[C@@H](C)C(=O)N[C@@H](CC(C)C)C(=O)N[C@@H](C)C(=O)N[C@@H](CCCCN)C(=O)N[C@@H](CCCCN)C(=O)N[C@H](C(=O)N[C@@H](CC(C)C)C(N)=O)[C@@H](C)CC [E2]	39.1083	11.8092
CC[C@H](C)[C@H](N)C(=O)N[C@@H](CC(N)=O)C(=O)N[C@@H](CC(C)C)C(=O)N[C@@H](CCCCN)C(=O)N[C@@H](C)C(=O)N[C@@H](CC(C)C)C(=O)N[C@@H](C)C(=O)N[C@@H](C)C(=O)N[C@@H](CC(C)C)C(=O)N[C@@H](C)C(=O)N[C@@H](CCCCN)C(=O)N[C@@H](CCCCN)C(=O)N[C@H](C(=O)NCC(N)=O)[C@@H](C)CC [G14]	28.3643	3.069
CC[C@H](C)[C@H](N)C(=O)N[C@@H](CC(N)=O)C(=O)N[C@@H](CC(C)C)C(=O)N[C@@H](CCCCN)C(=O)N[C@@H](C)C(=O)N[C@@H](CC(C)C)C(=O)N[C@@H](C)C(=O)N[C@@H](C)C(=O)N[C@@H](CC(C)C)C(=O)N[C@@H](C)C(=O)N[C@@H](CCCCN)C(=O)N[C@@H](CCCCN)C(=O)N[C@H](C(=O)N[C@@H](Cc1c[nH]cn1)C(N)=O)[C@@H](C)CC [H14]	14.7055	-11.4515
CC[C@H](C)[C@H](N)C(=O)N[C@@H](CC(N)=O)C(=O)N[C@@H](CC(C)C)C(=O)N[C@@H](CCCCN)C(=O)N[C@@H](C)C(=O)N[C@@H](CC(C)C)C(=O)N[C@@H](C)C(=O)N[C@@H](C)C(=O)N[C@@H](CC(C)C)C(=O)N[C@@H](CCC(=O)O)C(=O)N[C@@H](CCCCN)C(=O)N[C@@H](CCCCN)C(=O)N[C@H](C(=O)N[C@@H](CC(C)C)C(N)=O)[C@@H](C)CC [E10]	7.891	-0.2344
CC[C@H](C)[C@H](N)C(=O)N[C@@H](CC(N)=O)C(=O)N[C@@H](CC(C)C)C(=O)N[C@@H](CCCCN)C(=O)N[C@@H](C)C(=O)N[C@@H](CC(C)C)C(=O)N[C@@H](C)C(=O)N[C@@H](CCC(N)=O)C(=O)N[C@@H](CC(C)C)C(=O)N[C@@H](C)C(=O)N[C@@H](CCCCN)C(=O)N[C@@H](CCCCN)C(=O)N[C@H](C(=O)N[C@@H](CC(C)C)C(N)=O)[C@@H](C)CC [Q8]	46.0978	5.553
CC[C@H](C)[C@H](N)C(=O)N[C@@H](CC(N)=O)C(=O)N[C@@H](CC(C)C)C(=O)N[C@@H](CCCCN)C(=O)N[C@@H](C)C(=O)N[C@@H](CC(C)C)C(=O)N[C@@H](C)C(=O)N[C@@H](C)C(=O)N[C@@H](CC(C)C)C(=O)N[C@@H](C)C(=O)N[C@@H](CCCCN)C(=O)NCC(=O)N[C@H](C(=O)N[C@@H](CC(C)C)C(N)=O)[C@@H](C)CC [G12]	17.8169	13.7945
CC[C@H](C)[C@H](N)C(=O)N[C@@H](CC(N)=O)C(=O)N[C@@H](CC(N)=O)C(=O)N[C@@H](CCCCN)C(=O)N[C@@H](C)C(=O)N[C@@H](CC(C)C)C(=O)N[C@@H](C)C(=O)N[C@@H](C)C(=O)N[C@@H](CC(C)C)C(=O)N[C@@H](C)C(=O)N[C@@H](CCCCN)C(=O)N[C@@H](CCCCN)C(=O)N[C@H](C(=O)N[C@@H](CC(C)C)C(N)=O)[C@@H](C)CC [N3]	47.2847	-0.8054
